The series is described as follows: Cytotoxicity against human erythrocytes assessed as hemolytic activity after 60 mins. Conditions: read-out: HD50. It counts as cell-based, Erythrocyte.
Turning to `C[C@@H]1CC[C@@]2(OC1)O[C@H]1C[C@H]3[C@@H]4CC=C5C[C@@H](O[C@@H]6O[C@H](CO)[C@@H](O[C@H]7O[C@H](C)[C@@H](OCCNC(=O)COc8ccccc8)[C@H](O)[C@@H]7O)[C@H](O)[C@H]6O[C@H]6O[C@H](C)[C@@H](O)[C@H](O)[C@@H]6O)CC[C@]5(C)[C@H]4CC[C@]3(C)[C@H]1[C@@H]2C`, the HC50 at 1 h came to 7.6 µM. Turning to `C[C@@H]1CC[C@@]2(OC1)O[C@H]1C[C@H]3[C@@H]4CC=C5C[C@@H](O[C@@H]6O[C@H](CO)[C@@H](O[C@@H]7O[C@@H](C)[C@H](O)[C@@H](O)[C@H]7O)[C@H](O)[C@H]6O[C@@H]6O[C@@H](C)[C@H](O)[C@@H](O)[C@H]6O)CC[C@]5(C)[C@H]4CC[C@]3(C)[C@H]1[C@@H]2C` [DIOSCIN], the HC50 at 1 h amounted to 6.8 µM. As for `C[C@@H]1CC[C@@]2(OC1)O[C@H]1C[C@H]3[C@@H]4CC=C5C[C@@H](O[C@@H]6O[C@H](CO)[C@@H](O[C@H]7O[C@H](C)[C@@H](OCCN=[N+]=[N-])[C@H](O)[C@@H]7O)[C@H](O)[C@H]6O[C@H]6O[C@H](C)[C@@H](O)[C@H](O)[C@@H]6O)CC[C@]5(C)[C@H]4CC[C@]3(C)[C@H]1[C@@H]2C`, the HC50 at 1 h amounted to 9.7 µM. For the molecule `C[C@@H]1CC[C@@]2(OC1)O[C@H]1C[C@H]3[C@@H]4CC=C5C[C@@H](O[C@@H]6O[C@H](CO)[C@@H](O[C@H]7O[C@H](C)[C@@H](OCCNC(=O)COc8ccc(Cl)cc8)[C@H](O)[C@@H]7O)[C@H](O)[C@H]6O[C@H]6O[C@H](C)[C@@H](O)[C@H](O)[C@@H]6O)CC[C@]5(C)[C@H]4CC[C@]3(C)[C@H]1[C@@H]2C`, the HC50 at 1 h came out at 2.9 µM.

As to `COc1ccc(C(=O)NCCO[C@H]2[C@H](O)[C@H](O)[C@@H](O[C@H]3[C@H](O)[C@@H](O[C@H]4O[C@H](C)[C@@H](O)[C@H](O)[C@@H]4O)[C@H](O[C@H]4CC[C@@]5(C)C(=CC[C@H]6[C@@H]7C[C@@H]8O[C@]9(CC[C@@H](C)CO9)[C@@H](C)[C@@H]8[C@@]7(C)CC[C@@H]65)C4)O[C@@H]3CO)O[C@@H]2C)cc1`, the HC50 at 1 h stood at 4.5 µM. On to `CC(=O)O[C@H]1[C@H](O)[C@H](O)[C@@H](O[C@H]2[C@H](O)[C@@H](O[C@H]3O[C@H](C)[C@@H](O)[C@H](O)[C@@H]3O)[C@H](O[C@H]3CC[C@@]4(C)C(=CC[C@H]5[C@@H]6C[C@@H]7O[C@]8(CC[C@@H](C)CO8)[C@@H](C)[C@@H]7[C@@]6(C)CC[C@@H]54)C3)O[C@@H]2CO)O[C@@H]1C`, for which the HC50 at 1 h stood at 3.2 µM. On to `C[C@@H]1CC[C@@]2(OC1)O[C@H]1C[C@H]3[C@@H]4CC=C5C[C@@H](O[C@@H]6O[C@H](CO)[C@@H](O)[C@H](O[C@@H]7O[C@@H](C)[C@H](O)[C@@H](O)[C@H]7O)[C@H]6O[C@H]6O[C@H](C)[C@@H](O)[C@H](O)[C@@H]6O)CC[C@]5(C)[C@H]4CC[C@]3(C)[C@H]1[C@@H]2C` [TACCAOSIDE], for which the HC50 at 1 h came to 6.8 µM. Turning to `C[C@@H]1CC[C@@]2(OC1)O[C@H]1C[C@H]3[C@@H]4CC=C5C[C@@H](O[C@@H]6O[C@H](CNC(=O)C(F)(F)F)[C@@H](O[C@H]7O[C@H](C)[C@@H](O)[C@H](O)[C@@H]7O)[C@H](O)[C@H]6O[C@H]6O[C@H](C)[C@@H](O)[C@H](O)[C@@H]6O)CC[C@]5(C)[C@H]4CC[C@]3(C)[C@H]1[C@@H]2C`, the HC50 at 1 h is 18.5 µM. With `C[C@@H]1CC[C@@]2(OC1)O[C@H]1C[C@H]3[C@@H]4CC=C5C[C@@H](O[C@@H]6O[C@H](CNC(=O)CCCCl)[C@@H](O[C@H]7O[C@H](C)[C@@H](O)[C@H](O)[C@@H]7O)[C@H](O)[C@H]6O[C@H]6O[C@H](C)[C@@H](O)[C@H](O)[C@@H]6O)CC[C@]5(C)[C@H]4CC[C@]3(C)[C@H]1[C@@H]2C`, the HC50 at 1 h was 20.9 µM. Turning to `CCCC(=O)O[C@H]1[C@H](O)[C@H](O)[C@@H](O[C@H]2[C@H](O)[C@@H](O[C@H]3O[C@H](C)[C@@H](O)[C@H](O)[C@@H]3O)[C@H](O[C@H]3CC[C@@]4(C)C(=CC[C@H]5[C@@H]6C[C@@H]7O[C@]8(CC[C@@H](C)CO8)[C@@H](C)[C@@H]7[C@@]6(C)CC[C@@H]54)C3)O[C@@H]2CO)O[C@@H]1C`, the HC50 at 1 h was 2.8 µM.

`C[C@@H]1CC[C@@]2(OC1)O[C@H]1C[C@H]3[C@@H]4CC=C5C[C@@H](O[C@@H]6O[C@H](CO[C@@H]7O[C@@H](C)[C@H](O)[C@@H](O)[C@H]7O)[C@@H](O)[C@H](O)[C@H]6O)CC[C@]5(C)[C@H]4CC[C@]3(C)[C@H]1[C@@H]2C`: the HC50 at 1 h was found to be 28.6 µM. As for `C[C@@H]1CC[C@@]2(OC1)O[C@H]1C[C@H]3[C@@H]4CC=C5C[C@@H](O[C@@H]6O[C@H](CNC(=O)COc7ccc(Cl)cc7)[C@@H](O[C@H]7O[C@H](C)[C@@H](O)[C@H](O)[C@@H]7O)[C@H](O)[C@H]6O[C@H]6O[C@H](C)[C@@H](O)[C@H](O)[C@@H]6O)CC[C@]5(C)[C@H]4CC[C@]3(C)[C@H]1[C@@H]2C`, the HC50 at 1 h was determined as 9.4 µM.

As to `C[C@@H]1CC[C@@]2(OC1)O[C@H]1C[C@H]3[C@@H]4CC=C5C[C@@H](O[C@@H]6O[C@H](CNC(=O)/C=C/c7ccccc7)[C@@H](O[C@H]7O[C@H](C)[C@@H](O)[C@H](O)[C@@H]7O)[C@H](O)[C@H]6O[C@H]6O[C@H](C)[C@@H](O)[C@H](O)[C@@H]6O)CC[C@]5(C)[C@H]4CC[C@]3(C)[C@H]1[C@@H]2C`, the HC50 at 1 h was found to be 11.8 µM. For the molecule `C[C@@H]1CC[C@@]2(OC1)O[C@H]1C[C@H]3[C@@H]4CC=C5C[C@@H](O[C@@H]6O[C@H](CO)[C@@H](O[C@H]7O[C@H](C)[C@@H](OCCNC(=O)CCCCl)[C@H](O)[C@@H]7O)[C@H](O)[C@H]6O[C@H]6O[C@H](C)[C@@H](O)[C@H](O)[C@@H]6O)CC[C@]5(C)[C@H]4CC[C@]3(C)[C@H]1[C@@H]2C`, the HC50 at 1 h amounted to 3.8 µM. As to `CCCCCCCCCC(=O)O[C@H]1C[C@@H]2[C@H](CC[C@]3(C)[C@@H]4[C@H](C[C@@H]23)O[C@]2(CC[C@@H](C)CO2)[C@H]4C)[C@@]2(C)C[C@@H](O)[C@H](O[C@@H]3O[C@H](CO)[C@@H](O[C@H]4O[C@H](C)[C@@H](O)[C@H](O)[C@@H]4O)[C@H](O)[C@H]3O[C@H]3O[C@H](C)[C@@H](O)[C@H](O)[C@@H]3O)C[C@H]12`, the HC50 at 1 h worked out at 6.7 µM. `C[C@@H]1CC[C@@]2(OC1)O[C@H]1C[C@H]3[C@@H]4CC=C5C[C@@H](O[C@@H]6O[C@H](CNC(=O)OCC7c8ccccc8-c8ccccc87)[C@@H](O[C@H]7O[C@H](C)[C@@H](O)[C@H](O)[C@@H]7O)[C@H](O)[C@H]6O[C@H]6O[C@H](C)[C@@H](O)[C@H](O)[C@@H]6O)CC[C@]5(C)[C@H]4CC[C@]3(C)[C@H]1[C@@H]2C`: the HC50 at 1 h was found to be 9 µM.

As for `COc1ccc(C(=O)NC[C@H]2O[C@@H](O[C@H]3CC[C@@]4(C)C(=CC[C@H]5[C@@H]6C[C@@H]7O[C@]8(CC[C@@H](C)CO8)[C@@H](C)[C@@H]7[C@@]6(C)CC[C@@H]54)C3)[C@H](O[C@H]3O[C@H](C)[C@@H](O)[C@H](O)[C@@H]3O)[C@@H](O)[C@@H]2O[C@H]2O[C@H](C)[C@@H](O)[C@H](O)[C@@H]2O)cc1`, the HC50 at 1 h was 9.5 µM. Consider `C[C@@H]1CC[C@@]2(OC1)O[C@H]1C[C@H]3[C@@H]4CC[C@H]5C[C@@H](O[C@@H]6O[C@H](CO)[C@@H](O[C@H]7O[C@H](C)[C@@H](O)[C@H](O)[C@@H]7O)[C@H](O)[C@H]6O[C@H]6O[C@H](C)[C@@H](O)[C@H](O)[C@@H]6O)CC[C@]5(C)[C@H]4CC[C@]3(C)[C@H]1[C@@H]2C`, for which the HC50 at 1 h worked out at 3 µM. For the molecule `CCCCCC(=O)O[C@H]1C[C@@H]2[C@H](CC[C@]3(C)[C@@H]4[C@H](C[C@@H]23)O[C@]2(CC[C@@H](C)CO2)[C@H]4C)[C@@]2(C)C[C@@H](O)[C@H](O[C@@H]3O[C@H](CO)[C@@H](O[C@H]4O[C@H](C)[C@@H](O)[C@H](O)[C@@H]4O)[C@H](O)[C@H]3O[C@H]3O[C@H](C)[C@@H](O)[C@H](O)[C@@H]3O)C[C@H]12`, the HC50 at 1 h turned out to be 7.6 µM. For `C[C@@H]1CC[C@@]2(OC1)O[C@H]1C[C@H]3[C@@H]4CC=C5C[C@@H](O[C@@H]6O[C@H](CO)[C@@H](O[C@H]7O[C@H](C)[C@@H](OCCNC(=O)C(F)(F)F)[C@H](O)[C@@H]7O)[C@H](O)[C@H]6O[C@H]6O[C@H](C)[C@@H](O)[C@H](O)[C@@H]6O)CC[C@]5(C)[C@H]4CC[C@]3(C)[C@H]1[C@@H]2C`, the HC50 at 1 h came to 5.7 µM. Turning to `C=CCCCCCCCCC(=O)NC[C@H]1O[C@@H](O[C@H]2CC[C@@]3(C)C(=CC[C@H]4[C@@H]5C[C@@H]6O[C@]7(CC[C@@H](C)CO7)[C@@H](C)[C@@H]6[C@@]5(C)CC[C@@H]43)C2)[C@H](O[C@H]2O[C@H](C)[C@@H](O)[C@H](O)[C@@H]2O)[C@@H](O)[C@@H]1O[C@H]1O[C@H](C)[C@@H](O)[C@H](O)[C@@H]1O`, the HC50 at 1 h was over 50 µg/mL.

Take `C[C@@H]1CC[C@@]2(OC1)O[C@H]1C[C@H]3[C@@H]4CC[C@H]5C[C@@H](O[C@@H]6O[C@H](CO)[C@H](O)[C@H](O)[C@H]6O[C@H]6O[C@H](C)[C@@H](O)[C@H](O)[C@@H]6O)[C@H](O)C[C@]5(C)[C@H]4CC[C@]3(C)[C@H]1[C@@H]2C`: the HC50 at 1 h came to 7.5 µM. `CC(=O)NC[C@H]1O[C@@H](O[C@H]2CC[C@@]3(C)C(=CC[C@H]4[C@@H]5C[C@@H]6O[C@]7(CC[C@@H](C)CO7)[C@@H](C)[C@@H]6[C@@]5(C)CC[C@@H]43)C2)[C@H](O[C@H]2O[C@H](C)[C@@H](O)[C@H](O)[C@@H]2O)[C@@H](O)[C@@H]1O[C@H]1O[C@H](C)[C@@H](O)[C@H](O)[C@@H]1O`: the HC50 at 1 h is over 50 µg/mL.

The values are drawn from ChEMBL document CHEMBL1147199, “Exploration of the correlation between the structure, hemolytic activity, and cytotoxicity of steroid saponins” (Bioorg Med Chem, 2007).
